The results in this text go back to PubChem BioAssay AID1794802 (Yongcheng Song lab at Baylor College of Medicine, 2022).

Active and inactive are the calls of the source.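 The calls were made as follows: active = EC50 under 50 µM in a live-cell viability test; inactive = the rest.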

For this assay, the system named is Molm13 AML cells, XTT viability. The experiment in a line: Molm13 antiproliferative activity – cell-based, XTT viability, AHD inhibitor project, dose response (AID 1794802). A general note: Tetrazolium assays rely on reduction of a dye to a coloured formazan, in cell work by metabolically active cells.

For `O=C(NCC1CCNCC1)c1cc2cc(-c3cn[nH]c3)ccc2[nH]1`, the EC50 was > 51 µM (inactive).

For the compound `O=C(NCC1CCNCC1)c1coc2cc(-c3ccc(N4CCCCC4)cc3)ccc12`, the EC50 was 13 µM.

In the case of `O=C(NCC1CCNCC1)c1cc2ccc(-c3ccc(N4CCCCC4)cc3)cc2s1`, the EC50 was 4.7 µM.

In the case of `O=C(NCC1CCNCC1)c1c[nH]c2cc(-c3ccc(N4CCCC4)cc3)ccc12`, the half-maximal effective concentration (EC50) is 50 µM.

On to `O=C(NCC1CCNCC1)c1cc2ccc(-c3ccc(N4CCCC4)cc3)cc2s1`, for which the EC50 was 9.4 µM.

For the compound `O=C(NCC1CCNCC1)c1c[nH]c2cc(-c3ccc(N4CCCCC4)cc3)ccc12`, the EC50 was 29 µM.

Regarding `O=C(NCC1CCNCC1)c1cc2cc(-c3ccc(N4CCCCC4)cc3)ccc2s1`, the EC50 is 5.1 µM.

With `NCc1ccc(-c2ccc3cc(C(=O)NCC4CCNCC4)oc3c2)cc1`, the EC50 was > 51 µM (inactive).

Regarding `NC(=O)c1ccc(-c2ccc3cc(C(=O)NCC4CCNCC4)sc3c2)cc1`, the EC50 was > 51 µM (inactive).

On to `O=C(NCC1CCNCC1)c1cc2cc(-c3ccc(N4CCCCC4)cc3)ccc2[nH]1`, for which the EC50 was 10 µM.

The term EC50 denotes the midpoint of the concentration-response curve.
